{"source": "patent US20230234917A1", "about": "“ASPARAGINE DERIVATIVES AND METHODS OF USING SAME” (priority 2020, published 2023)", "key": {"ClbP [1]": {"target": "T1, ClbP (Escherichia coli, UniProt Q0P7K6)", "assay": "ClbP whole cell activity (inhibition) assay, fluorogenic substrate", "format": "cell-based, E. coli", "summary_of_the_method": "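E. coli ClbP+ overnight culture washed and concentrated fivefold in PBS, mixed with inhibitor (0–300 μM, 4% DMSO) and 5 μM fluorogenic substrate at 37 °C. Fluorescence (ex 360/em 460 nm) read every 2 min for 46 min. Rates from 10–30 min normalized to no inhibitor and fit to a three-parameter IC50.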"}, "ClbP [2]": {"target": "T1, ClbP", "assay": "ClbP cell lysate activity (inhibition) assay, fluorogenic substrate", "format": "biochemical", "details": "ClbP Lysate Inhibition Assay: IC50, E. coli ClbP+ lysozyme-EDTA lysates, 5 μM fluorogenic substrate, inhibitor 0-300 μM, 37° C., singlicate", "summary_of_the_method": "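E. coli ClbP+ overnight culture lysed with lysozyme-EDTA (30 min, 37 °C); lysate (fivefold concentrated vs culture) mixed with inhibitor (0–300 μM, 4% DMSO) and 5 μM fluorogenic substrate. Fluorescence (ex 360/em 460 nm) read at 37 °C; 0–20 min rates normalized to no-inhibitor, three-parameter IC50 fit, singlicate.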"}, "Full-length WT ClbP": {"target": "Full-length WT ClbP (Escherichia coli, UniProt Q0P7K6)", "assay": "ClbP molecular (purified protein) enzymatic inhibition assay, fluorogenic substrate", "format": "biochemical, E. coli"}}, "data": [{"smiles": "CCCCCCCC(=O)N[C@H](CC(N)=O)C(=O)NCCc1ccc(Cl)cc1", "note": "[Compound CXCIV]", "values": [{"measurement": "IC50", "setting": "ClbP [1]", "result": "< 100", "unit": "µM"}, {"measurement": "IC50", "setting": "ClbP [2]", "result": "< 100", "unit": "µM"}, {"measurement": "IC50", "setting": "Full-length WT ClbP", "result": "< 100", "unit": "µM"}]}, {"smiles": "CCCCCCCC(=O)N[C@H](CC(N)=O)C(=O)NCCc1ccc(OC)cc1", "note": "[Compound CXCIX]", "values": [{"measurement": "IC50", "setting": "ClbP [1]", "result": "< 100", "unit": "µM"}, {"measurement": "IC50", "setting": "ClbP [2]", "result": "< 100", "unit": "µM"}, {"measurement": "IC50", "setting": "Full-length WT ClbP", "result": "< 100", "unit": "µM"}]}, {"smiles": "CCCCCCCC(=O)N[C@H](CC(N)=O)[C@@H](O)CCCc1ccccc1", "note": "[Compound CXCI]", "values": [{"measurement": "IC50", "setting": "ClbP [1]", "result": "< 100", "unit": "µM"}, {"measurement": "IC50", "setting": "ClbP [2]", "result": "100 to 300", "unit": "µM"}, {"measurement": "IC50", "setting": "Full-length WT ClbP", "result": "100 to 300", "unit": "µM"}]}, {"smiles": "CCCCCCCC(=O)N[C@H](CC(N)=O)C(=O)NCCc1ccc(C(=O)O)cc1", "note": "[Compound CXCVIII]", "values": [{"measurement": "IC50", "setting": "ClbP [1]", "result": "< 100", "unit": "µM"}, {"measurement": "IC50", "setting": "ClbP [2]", "result": "100 to 300", "unit": "µM"}, {"measurement": "IC50", "setting": "Full-length WT ClbP", "result": "< 100", "unit": "µM"}]}, {"smiles": "CCCCCCCC(=O)N[C@H](CC(N)=O)C(=O)NCCc1ccc(C(=O)OC)cc1", "note": "[Compound CXCVII]", "values": [{"measurement": "IC50", "setting": "ClbP [1]", "result": "< 100", "unit": "µM"}, {"measurement": "IC50", "setting": "ClbP [2]", "result": "< 100", "unit": "µM"}, {"measurement": "IC50", "setting": "Full-length WT ClbP", "result": "< 100", "unit": "µM"}]}, {"smiles": "CCCCCCCC(=O)N[C@H](CC(N)=O)C(=O)NCCc1ccc(C)cc1", "note": "[Compound CXCVI]", "values": [{"measurement": "IC50", "setting": "ClbP [1]", "result": "< 100", "unit": "µM"}, {"measurement": "IC50", "setting": "ClbP [2]", "result": "< 100", "unit": "µM"}, {"measurement": "IC50", "setting": "Full-length WT ClbP", "result": "< 100", "unit": "µM"}]}, {"smiles": "CCCCCCCC(=O)N[C@H](CC(N)=O)C(=O)NCCc1ccc(C(F)(F)F)cc1", "note": "[Compound CXCV]", "values": [{"measurement": "IC50", "setting": "ClbP [1]", "result": "> 300", "unit": "µM"}, {"measurement": "IC50", "setting": "ClbP [2]", "result": "> 300", "unit": "µM"}, {"measurement": "IC50", "setting": "Full-length WT ClbP", "result": "100 to 300", "unit": "µM"}]}, {"smiles": "CCCCCCCC(=O)N[C@H](CC(N)=O)C(=O)NCCN1CCN(C)CC1", "note": "[Compound CXC]", "values": [{"measurement": "IC50", "setting": "ClbP [1]", "result": "> 300", "unit": "µM"}, {"measurement": "IC50", "setting": "ClbP [2]", "result": "> 300", "unit": "µM"}, {"measurement": "IC50", "setting": "Full-length WT ClbP", "result": "100 to 300", "unit": "µM"}]}, {"smiles": "CCCCCCCC(=O)N[C@H](CC(N)=O)C(=O)NCCc1ccccc1", "note": "[Compound III]", "values": [{"measurement": "IC50", "setting": "ClbP [1]", "result": "< 100", "unit": "µM"}, {"measurement": "IC50", "setting": "ClbP [2]", "result": "< 100", "unit": "µM"}, {"measurement": "IC50", "setting": "Full-length WT ClbP", "result": "< 100", "unit": "µM"}]}, {"smiles": "CCCCCCCC(=O)N[C@@H](CNCCc1ccccc1)CC(N)=O", "note": "[Compound IX]", "values": [{"measurement": "IC50", "setting": "ClbP [1]", "result": "> 300", "unit": "µM"}, {"measurement": "IC50", "setting": "ClbP [2]", "result": "> 300", "unit": "µM"}, {"measurement": "IC50", "setting": "Full-length WT ClbP", "result": "100 to 300", "unit": "µM"}]}, {"smiles": "CCCCCCCC(=O)N[C@H](CC(N)=O)C(=O)O[C@@H](C)C(=O)OC", "note": "[Compound LXXVI]", "values": [{"measurement": "IC50", "setting": "ClbP [1]", "result": "< 100", "unit": "µM"}, {"measurement": "IC50", "setting": "ClbP [2]", "result": "< 100", "unit": "µM"}, {"measurement": "IC50", "setting": "Full-length WT ClbP", "result": "100 to 300", "unit": "µM"}]}, {"smiles": "CCCCCCCC(=O)N[C@](C)(CC(N)=O)C(=O)NCCc1ccccc1", "note": "[Compound LXX]", "values": [{"measurement": "IC50", "setting": "ClbP [1]", "result": "> 300", "unit": "µM"}, {"measurement": "IC50", "setting": "ClbP [2]", "result": "> 300", "unit": "µM"}, {"measurement": "IC50", "setting": "Full-length WT ClbP", "result": "100 to 300", "unit": "µM"}]}, {"smiles": "CCCCCCCC(=O)N[C@@H](CNC(C)(C)C)CC(N)=O", "note": "[Compound VIII]", "values": [{"measurement": "IC50", "setting": "ClbP [1]", "result": "< 100", "unit": "µM"}, {"measurement": "IC50", "setting": "ClbP [2]", "result": "< 100", "unit": "µM"}, {"measurement": "IC50", "setting": "Full-length WT ClbP", "result": "< 100", "unit": "µM"}]}, {"smiles": "CCCCCCCC(=O)N[C@H](CC(N)=O)c1nnn(C(C)(C)C)n1", "note": "[Compound XIX]", "values": [{"measurement": "IC50", "setting": "ClbP [1]", "result": "> 300", "unit": "µM"}, {"measurement": "IC50", "setting": "ClbP [2]", "result": "> 300", "unit": "µM"}, {"measurement": "IC50", "setting": "Full-length WT ClbP", "result": "100 to 300", "unit": "µM"}]}, {"smiles": "CCCCCCCC(=O)N[C@H](CC(N)=O)c1nnn(CCc2ccccc2)n1", "note": "[Compound XVIII]", "values": [{"measurement": "IC50", "setting": "ClbP [1]", "result": "> 300", "unit": "µM"}, {"measurement": "IC50", "setting": "ClbP [2]", "result": "> 300", "unit": "µM"}, {"measurement": "IC50", "setting": "Full-length WT ClbP", "result": "100 to 300", "unit": "µM"}]}, {"smiles": "CCCCCCCC(=O)N[C@H](CC(N)=O)CN(C)CCc1ccccc1", "note": "[Compound XVI]", "values": [{"measurement": "IC50", "setting": "ClbP [1]", "result": "> 300", "unit": "µM"}, {"measurement": "IC50", "setting": "ClbP [2]", "result": "< 100", "unit": "µM"}, {"measurement": "IC50", "setting": "Full-length WT ClbP", "result": "< 100", "unit": "µM"}]}, {"smiles": "CCCCCCCCCC(=O)N[C@@H]1CC(=O)NC1(O)C(=O)NCc1ccccc1", "note": "(stereo partly drawn) [Compound […]]", "values": [{"measurement": "IC50", "setting": "ClbP [1]", "result": "100 to 300", "unit": "µM"}, {"measurement": "IC50", "setting": "ClbP [2]", "result": "100 to 300", "unit": "µM"}, {"measurement": "IC50", "setting": "Full-length WT ClbP", "result": "< 100", "unit": "µM"}]}]}
